Columns and labels:
[1] = tested on: Human epidermal melanoma cells A375; assay: Visible light induced hyperpigmentation in vitro (melanin quantification); format: cell-based; conditions: for Inhibition vs. visible light induced / Melanin: visible light 480 J/cm2; for Melanin: treated 48 h prior to and past irradiation; for inhibition of visible light induced hyperpigmentation (in words): summary of Table 1
Experimental: Human epidermal melanoma cells A375 were cultured in 6-well plates. The cells were exposed to visible light (480 J/cm2) with Hydrosun 750 equipped with KG1 filter. 48 h prior to and past to the irradiation the cells were treated with test compounds in non-cytotoxic concentrations. Melanocytes were lysed in a solution of NaOH. Melanin was quantified by measurement of absorbance at 405 nm and calculation based on a melanin standard curve.

[2] = tested on: ex vivo human skin explants; assay: Melanin formation after visible light irradiation on ex vivo human skin; conditions: visible light 480 J/cm2; for % of melanin: Fontana-Masson stain, image analysis
Experimental: The below formulations were applied on ex vivo human skin explants from abdominal surgery of a donor with phototype IV (Fitzpatrick scale). 48 h after the formulations were removed with a cotton pad. Skin explants were exposed to visible light (480 J/cm2) with Hydrosun 750 equipped with KG1 filter. Formulations were reapplied afterwards. 48 h later skin sections were prepared and melanin was stained by Fontana-Masson stain. Quantification of melanin was done by image analysis.

## CCCCc1ccc(O)cc1O [4-Butylresorcinol, 4-butyl resorcinol]
[1]; concentration 0.0000316 %
  Inhibition vs. visible light induced: 58%
  Melanin: 2.3136 ± 0.6518 µg
[1]; concentration 0.0001000 %
  Inhibition vs. visible light induced: 100%
  Melanin: 1.8593 ± 0.5365 µg
[1]; concentration 0.0003160 %
  Inhibition vs. visible light induced: 183%
  Melanin: 0.9849 ± 0.0738 µg
[1]
  inhibition of visible light induced hyperpigmentation (in words): significantly inhibit

## CCCCCCc1ccc(O)cc1O [4-Hexylresorcinol, 4-hexyl resorcinol]
[1]; concentration 0.000005 %
  Inhibition vs. visible light induced: 91%
  Melanin: 1.9616 ± 0.2899 µg
[1]; concentration 0.000015 %
  Inhibition vs. visible light induced: 102%
  Melanin: 1.8407 ± 0.1988 µg
[1]; concentration 0.000050 %
  Inhibition vs. visible light induced: 166%
  Melanin: 1.1668 ± 0.1312 µg
[1]
  inhibition of visible light induced hyperpigmentation (in words): significantly inhibit

## CC(c1ccccc1)c1ccc(O)cc1O (stereo not shown) [SymWhite ® 377, phenylethyl resorcinol]
[1]; concentration 0.000068 %
  Inhibition vs. visible light induced: 79%
  Melanin: 0.5688 ± 0.0793 µg
[1]; concentration 0.000210 %
  Inhibition vs. visible light induced: 86%
  Melanin: 0.5280 ± 0.0494 µg
[1]; concentration 0.000680 %
  Inhibition vs. visible light induced: 100%
  Melanin: 0.4598 ± 0.1024 µg
[1]
  inhibition of visible light induced hyperpigmentation (in words): significantly inhibit
[2]; 0.2% in formulation applied to skin explants (phototype IV)
  % of melanin: 42.48 ± 2.6%
[2]; 0.2% in formulation applied to skin explants
  Inhibition vs Placebo: 67.5%
[2]; 0.5% in formulation applied to skin explants (phototype IV)
  % of melanin: 25.91 ± 1.2%
[2]; 0.5% in formulation applied to skin explants
  Inhibition vs Placebo: 125.7%
